Reference: patent US12043632B2, “6-heteroaryloxy benzimidazoles and azabenzimidazoles as JAK2 inhibitors” (Ajax Therapeutics, Inc., priority 2020, dated 2024)

biological target: T1, JAK2 (JH1domain-catalytic, Y1007F,Y1008F) kinase (Homo sapiens, UniProt O60674, Y1007F/Y1008F); assay: JAK2 JH1 Domain Binding Assay; settings: qPCR readout
T1 construct: JAK2 (JH1domain-catalytic, Y1007F,Y1008F) kinase was expressed as N-terminal fusion; made in house; host or cells: transiently transfected HEK293 cells
T1 sequence (O60674 849-1124 Y1007F/Y1008F limits assumed): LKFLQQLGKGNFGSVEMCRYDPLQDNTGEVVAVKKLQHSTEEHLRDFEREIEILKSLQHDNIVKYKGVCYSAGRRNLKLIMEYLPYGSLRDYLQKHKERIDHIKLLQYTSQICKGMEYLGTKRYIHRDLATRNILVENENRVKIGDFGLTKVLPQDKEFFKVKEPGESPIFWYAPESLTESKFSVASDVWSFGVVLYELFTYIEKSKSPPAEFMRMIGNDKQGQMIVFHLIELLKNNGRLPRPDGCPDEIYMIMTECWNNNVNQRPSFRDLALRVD

Compound	Kd [µM]
Cn1c(Nc2cc(C(C)(C)C)n([C@@H]3CCOC34CC4)n2)nc2ncc(Oc3cnn4ccncc34)c(Cl)c21 (single isomer, unassigned) [Example I-41-a]	< 0.01
Cn1c(Nc2cc(C(C)(C)C)n([C@@H]3CCOC34CC4)n2)nc2ncc(Oc3cnn4ccncc34)c(Cl)c21 (single isomer, unassigned) [Example I-41-b]	< 0.01
Cn1c(Nc2nc([C@H]3CCOC3)c(C(C)(C)C)s2)nc2ncc(Oc3cnn4ccnc4c3)c(Cl)c21 (single isomer, unassigned) [Example I-56-a]	0.01 to 0.05
Cn1c(Nc2nc([C@@H]3CCOC3)c(C(C)(C)C)s2)nc2ncc(Oc3cnn4ccnc4c3)c(Cl)c21 (single isomer, unassigned) [Example I-56-b]	0.01 to 0.05
Cn1c(Nc2cc(C(C)(C)C)n([C@H]3CCC[C@H]3O)n2)nc2ncc(Oc3cnn4ccncc34)c(Cl)c21 (single isomer, unassigned) [Example I-60-a]	0.01 to 0.05
Cn1c(Nc2cc(C(C)(C)C)n([C@@H]3CCC[C@@H]3O)n2)nc2ncc(Oc3cnn4ccncc34)c(Cl)c21 (single isomer, unassigned) [Example I-60-b]	< 0.01
COc1c(Oc2cnn3ccncc23)cnc2nc(Nc3cc(C(C)(C)C)n([C@H]4CCC[C@H]4O)n3)n(C)c12 (single isomer, unassigned) [Example I-69-a]	0.05 to 1
COc1c(Oc2cnn3ccncc23)cnc2nc(Nc3cc(C(C)(C)C)n([C@@H]4CCC[C@@H]4O)n3)n(C)c12 (single isomer, unassigned) [Example I-69-b]	0.01 to 0.05
Cn1c(Nc2cc(C(C)(C)C)n([C@H]3CCC[C@H]3O)n2)nc2ncc(Oc3cnn4ccncc34)c(C(F)F)c21 (single isomer, unassigned) [Example I-71-a]	0.05 to 1
Cn1c(Nc2cc(C(C)(C)C)n([C@@H]3CCC[C@@H]3O)n2)nc2ncc(Oc3cnn4ccncc34)c(C(F)F)c21 (single isomer, unassigned) [Example I-71-b]	0.01 to 0.05
COc1c(Oc2cnn3ccncc23)cnc2nc(Nc3cc(C4CC4)cn([C@@H]4CCCOC4)c3=O)n(C)c12 (single isomer, unassigned) [Example I-72-a]	< 0.01
COc1c(Oc2cnn3ccncc23)cnc2nc(Nc3cc(C4CC4)cn([C@H]4CCCOC4)c3=O)n(C)c12 (single isomer, unassigned) [Example I-72-b]	< 0.01
Cn1c(Nc2cc(C3CC3)cn([C@H]3CCCOC3)c2=O)nc2ncc(Oc3cnn4ccncc34)c(Cl)c21 (single isomer, unassigned) [Example I-73-a]	< 0.01
Cn1c(Nc2cc(C3CC3)cn([C@@H]3CCCOC3)c2=O)nc2ncc(Oc3cnn4ccncc34)c(Cl)c21 (single isomer, unassigned) [Example I-73-b]	< 0.01
Cn1c(Nc2cc(C(C)(C)C)n([C@H]3COC[C@@H]3O)n2)nc2ncc(Oc3cnc4cnc(C5CC5)n4c3)c(Cl)c21 (single isomer, unassigned) [Example I-76-a]	0.01 to 0.05

The next lines start with the values.

Kd [µM]	Compound
0.01 to 0.05	Cn1c(Nc2cc(C(C)(C)C)n([C@H]3COC[C@@H]3O)n2)nc2ncc(Oc3cnn4ccnc4c3)c(Cl)c21 (single isomer, unassigned) [Example I-23]
0.05 to 1	Cn1c(Nc2cc(C(C)(C)C)n([C@@H]3COC[C@H]3O)n2)nc2ncc(Oc3cnn4ccnc4c3)c(Cl)c21 (single isomer, unassigned) [Example I-24]
< 0.01	CC(O)Cn1nc(Nc2nc3ncc(Oc4cnn5ccncc45)c(Cl)c3n2C)cc1C(C)(C)C (single isomer, unassigned) [Example I-37]
< 0.01	C[C@@H](O)Cn1nc(Nc2nc3ncc(Oc4cnn5ccncc45)c(Cl)c3n2C)cc1C(C)(C)C (single isomer, unassigned) [Example I-38]
< 0.01	Cn1c(Nc2cc(C(C)(C)C)n(C3COCC3O)n2)nc2ncc(Oc3cnn4ccncc34)c(Cl)c21 (single isomer, unassigned) [Example I-47]
< 0.01	Cn1c(Nc2cc(C(C)(C)C)n(C3COCC3O)n2)nc2ncc(Oc3cnn4ccncc34)c(Cl)c21 (single isomer, unassigned) [Example I-48]
